Data reported in ChEMBL document CHEMBL1142605, “Stemoninines from the roots of Stemona tuberosa” (2006).

Columns and labels:
[1] = tested on: Cavia porcellus; assay: Antitussive activity in Dunkin-Hartley guinea pig assessed as inhibition of citric acid-induced cough at 100 mg/kg, ip administered 30 mins before citric acid challenge; format: functional; settings: route intraperitoneal
[2] = tested on: Cavia porcellus; assay: Antitussive activity in ip dosed Dunkin-Hartley guinea pig assessed as inhibition of citric acid-induced cough administered 30 mins before citric acid challenge; format: functional

| Compound | inhibition in vivo at 100 mg/kg [1] [%] | Activity [2] | ED50 [2] [µmol/kg] |
| --- | --- | --- | --- |
| CC[C@H]1[C@@H]2c3ccc([C@@H]4C[C@H](C)C(=O)O4)n3CCC[C@H]2O[C@]12C=C(C)C(=O)O2 [BISDEHYDROSTEMONININE] | 90 | Dose-dependent effect | 188 |
| CC[C@@H]1[C@H]2CCCCN3[C@H]2[C@@H](C[C@H]3[C@@H]2C[C@H](C)C(=O)O2)[C@H]2[C@@H]1OC(=O)[C@H]2C [NEOTUBEROSTEMONINE] | – | – | 66 |
